Common to all, as to type: cell-based, Influenza A
The test system of one test is WSN/33 H274Y (H1N1).
In test [1] the test system is Victoria/3/75-Os-R (H3N2). The experiment in a line: microbe, parasite or virus in culture.
The test system of test [2] is Mississippi/3/2001 H275Y (H1N1).
Test [3] concerns Hawaii/31/2007 H275Y (H1N1).
Test [4] has as its system Pennsylvania/30/2009 H275Y, I223R (H1N1).
Test [5] concerns Hong Kong/2369/2009 H275Y (H1N1).

Converted amounts (≈) assume the structure as drawn. Where two headings read alike, the source gives them in different places.

Regarding `NC(=O)c1ncn([C@@H]2O[C@H](CO)[C@@H](O)[C@H]2O)n1` [Ribavirin, ribavirin], the EC50 in the test on WSN/33 H274Y (H1N1) came out at 3.7 µg/mL (≈ 15.2 µM); in test [1] (Influenza A virus, H3N2, MDCK), 5.4 µg/mL (≈ 22.1 µM); in test [2], 18 µg/mL (≈ 73.7 µM); in test [3], 7.2 µg/mL (≈ 29.5 µM); in test [4], 5.2 µg/mL (≈ 21.3 µM); in test [5], 28 µg/mL (≈ 115 µM).
As for Oseltamivir acid [Oseltamivir (OSE)], the EC50 in the test on WSN/33 H274Y (H1N1) was 28 µg/mL; in test [1], >50 µg/mL; in test [2] it was >50 µg/mL; in test [3], >21 µg/mL; in test [4], >50 µg/mL. The SI is given as >1.8 in the test on WSN/33 H274Y (H1N1); 0 in test [1]; 0 in test [2]; <2.4 in test [3]; 0 in test [4]; <6.4 in test [5].

The record behind these values is US11230593B2, “Compositions and methods for treating and preventing influenza” (VISTERRA, INC., priority 2019, dated 2022).
